Laboratory results reported in publication PMC3399817 (PLoS ONE, 2012).

Legend:
Assay in all cases: KINOMEscan
Type in all cases: binding
[1] = target: T1, PAK4 (Homo sapiens, UniProt O96013); conditions: PAK4, 1 uM
T1 construct: purchased Ambit KINOMEscan (DiscoverX)
Method in brief: (§1)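 Substrate-binding inhibition measured with compound present at 1 μM, single concentration, to pick out affected kinases.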

[2] = target: T2, SRPK2 (Homo sapiens, UniProt P78362); conditions: SRPK2, 1 uM
T2 construct: purchased Ambit KINOMEscan (DiscoverX)
Method in brief: as §1

[3] = target: T3, NDR2 (Homo sapiens, UniProt Q9Y2H1); conditions: NDR2, 1 uM
T3 construct: purchased Ambit KINOMEscan (DiscoverX)
Method in brief: as §1

[4] = target: T4, CAMK4 (Homo sapiens, UniProt Q16566); conditions: CAMK4, 1 uM
T4 construct: purchased Ambit KINOMEscan (DiscoverX)
Method in brief: as §1

[5] = target: T5, TGFBR1 (Homo sapiens, UniProt P36897); conditions: TGFBR1, 1 uM
T5 construct: purchased Ambit KINOMEscan (DiscoverX)
Method in brief: as §1

[6] = target: T6, MLCK (Homo sapiens, UniProt Q32MK0); conditions: 1 uM
T6 construct: purchased Ambit KINOMEscan (DiscoverX)
Method in brief: as §1

[7] = target: T7, EGFR(L858R) (Homo sapiens, UniProt P00533, L858R); conditions: 1 uM
T7 construct: purchased Ambit KINOMEscan (DiscoverX)
Method in brief: as §1

[8] = target: T8, BRAF(V600E) (Homo sapiens, UniProt P15056, V600E); conditions: 1 uM
T8 construct: purchased Ambit KINOMEscan (DiscoverX)
Method in brief: as §1

[9] = target: T9, PRKR (Homo sapiens, UniProt P19525); conditions: 1 uM
T9 construct: purchased Ambit KINOMEscan (DiscoverX)
Method in brief: as §1

[10] = target: T10, SBK1 (Homo sapiens, UniProt Q52WX2); conditions: SBK1, 1 uM
T10 construct: purchased Ambit KINOMEscan (DiscoverX)
Method in brief: as §1

[11] = target: T11, TYK2(JH1domain-catalytic) (Homo sapiens, UniProt P29597); conditions: 1 uM
T11 construct: TYK2(JH1domain-catalytic); purchased Ambit KINOMEscan (DiscoverX)
Method in brief: as §1

[12] = target: T12, CAMK2D (Homo sapiens, UniProt Q13557); conditions: 1 uM
T12 construct: purchased Ambit KINOMEscan (DiscoverX)
Method in brief: as §1

[13] = target: T13, PDGFRB (Homo sapiens, UniProt P09619); conditions: 1 uM
T13 construct: purchased Ambit KINOMEscan (DiscoverX)
Method in brief: as §1

[14] = target: T14, TYK2(JH2domain-pseudokinase) (Homo sapiens, UniProt P29597); conditions: 1 uM
T14 construct: TYK2(JH2domain-pseudokinase); purchased Ambit KINOMEscan (DiscoverX)
Method in brief: as §1

[15] = target: T15, PYK2 (Homo sapiens, UniProt Q14289); conditions: PYK2, 1 uM
T15 construct: purchased Ambit KINOMEscan (DiscoverX)
Method in brief: as §1

[16] = target: T16, PAK7 (Homo sapiens, UniProt Q9P286); conditions: PAK7, 1 uM
T16 construct: purchased Ambit KINOMEscan (DiscoverX)
Method in brief: as §1

[17] = target: T17, TNK2 (Homo sapiens, UniProt Q07912); conditions: TNK2, 1 uM
T17 construct: purchased Ambit KINOMEscan (DiscoverX)
Method in brief: as §1

[18] = target: T18, KIT (Homo sapiens, UniProt P10721); conditions: 1 uM
T18 construct: purchased Ambit KINOMEscan (DiscoverX)
Method in brief: as §1

[19] = target: T19, TSSK1B (Homo sapiens, UniProt Q9BXA7); conditions: 1 uM
T19 construct: purchased Ambit KINOMEscan (DiscoverX)
Method in brief: as §1

[20] = target: T20, ADCK4 (Homo sapiens, UniProt Q96D53); conditions: ADCK4, 1 uM
T20 construct: purchased Ambit KINOMEscan (DiscoverX)
Method in brief: as §1

[21] = target: T21, ROCK2 (Homo sapiens, UniProt O75116); conditions: for % binding compared to no inhibitor control: ROCK2, 1 uM
T21 construct: purchased Ambit KINOMEscan (DiscoverX)
Method in brief: as §1

[22] = target: T22, RIPK2 (Homo sapiens, UniProt O43353); conditions: RIPK2, 1 uM
T22 construct: purchased Ambit KINOMEscan (DiscoverX)
Method in brief: as §1

[23] = target: T23, SIK2 (Homo sapiens, UniProt Q9H0K1); conditions: SIK2, 1 uM
T23 construct: purchased Ambit KINOMEscan (DiscoverX)
Method in brief: as §1

[24] = target: T24, LOK (Homo sapiens, UniProt O94804); conditions: 1 uM
T24 construct: purchased Ambit KINOMEscan (DiscoverX)
Method in brief: as §1

[25] = target: T25, PIK3CB (Homo sapiens, UniProt P42338); conditions: 1 uM
T25 construct: purchased Ambit KINOMEscan (DiscoverX)
Method in brief: as §1

[26] = target: T26, ABL1(H396P)-nonphosphorylated (Homo sapiens, UniProt P00519, H396P); conditions: 1 uM
T26 construct: purchased Ambit KINOMEscan (DiscoverX)
Method in brief: as §1

[27] = target: T27, YES (Homo sapiens, UniProt P07947); conditions: 1 uM
T27 construct: purchased Ambit KINOMEscan (DiscoverX)
Method in brief: as §1

[28] = target: T28, SIK (Homo sapiens, UniProt P57059); conditions: 1 uM
T28 construct: purchased Ambit KINOMEscan (DiscoverX)
Method in brief: as §1

[29] = target: T29, INSRR (Homo sapiens, UniProt P14616); conditions: 1 uM
T29 construct: purchased Ambit KINOMEscan (DiscoverX)
Method in brief: as §1

[30] = target: T30, TAK1 (Homo sapiens, UniProt O43318); conditions: TAK1, 1 uM
T30 construct: purchased Ambit KINOMEscan (DiscoverX)
Method in brief: as §1

[31] = target: T31, HIPK1 (Homo sapiens, UniProt Q86Z02); conditions: for % binding compared to no inhibitor control: HIPK1, 1 uM
T31 construct: purchased Ambit KINOMEscan (DiscoverX)
Method in brief: as §1

[32] = target: T32, CDK11 (Homo sapiens, UniProt Q9BWU1); conditions: CDK11, 1 uM
T32 construct: purchased Ambit KINOMEscan (DiscoverX)
Method in brief: as §1

[33] = target: T33, FGFR1 (Homo sapiens, UniProt P11362); conditions: FGFR1, 1 uM
T33 construct: purchased Ambit KINOMEscan (DiscoverX)
Method in brief: as §1

[34] = target: T34, PKMYT1 (Homo sapiens, UniProt Q99640); conditions: PKMYT1, 1 uM
T34 construct: purchased Ambit KINOMEscan (DiscoverX)
Method in brief: as §1

[35] = target: T35, IKK-epsilon (Homo sapiens, UniProt Q14164); conditions: 1 uM
T35 construct: purchased Ambit KINOMEscan (DiscoverX)
Method in brief: as §1

[36] = target: T36, PIM2 (Homo sapiens, UniProt Q9P1W9); conditions: PIM2, 1 uM
T36 construct: purchased Ambit KINOMEscan (DiscoverX)
Method in brief: as §1

[37] = target: T37, PKAC-beta (Homo sapiens, UniProt P22694); conditions: 1 uM
T37 construct: purchased Ambit KINOMEscan (DiscoverX)
Method in brief: as §1

[38] = tested on: FLT3(ITD); conditions: 1 uM
Method in brief: as §1

[39] = target: T38, NEK2 (Homo sapiens, UniProt P51955); conditions: NEK2, 1 uM
T38 construct: purchased Ambit KINOMEscan (DiscoverX)
Method in brief: as §1

[40] = target: T39, RAF1 (Homo sapiens, UniProt P04049); conditions: RAF1, 1 uM
T39 construct: purchased Ambit KINOMEscan (DiscoverX)
Method in brief: as §1

T31 sequence (Q86Z02 whole entry): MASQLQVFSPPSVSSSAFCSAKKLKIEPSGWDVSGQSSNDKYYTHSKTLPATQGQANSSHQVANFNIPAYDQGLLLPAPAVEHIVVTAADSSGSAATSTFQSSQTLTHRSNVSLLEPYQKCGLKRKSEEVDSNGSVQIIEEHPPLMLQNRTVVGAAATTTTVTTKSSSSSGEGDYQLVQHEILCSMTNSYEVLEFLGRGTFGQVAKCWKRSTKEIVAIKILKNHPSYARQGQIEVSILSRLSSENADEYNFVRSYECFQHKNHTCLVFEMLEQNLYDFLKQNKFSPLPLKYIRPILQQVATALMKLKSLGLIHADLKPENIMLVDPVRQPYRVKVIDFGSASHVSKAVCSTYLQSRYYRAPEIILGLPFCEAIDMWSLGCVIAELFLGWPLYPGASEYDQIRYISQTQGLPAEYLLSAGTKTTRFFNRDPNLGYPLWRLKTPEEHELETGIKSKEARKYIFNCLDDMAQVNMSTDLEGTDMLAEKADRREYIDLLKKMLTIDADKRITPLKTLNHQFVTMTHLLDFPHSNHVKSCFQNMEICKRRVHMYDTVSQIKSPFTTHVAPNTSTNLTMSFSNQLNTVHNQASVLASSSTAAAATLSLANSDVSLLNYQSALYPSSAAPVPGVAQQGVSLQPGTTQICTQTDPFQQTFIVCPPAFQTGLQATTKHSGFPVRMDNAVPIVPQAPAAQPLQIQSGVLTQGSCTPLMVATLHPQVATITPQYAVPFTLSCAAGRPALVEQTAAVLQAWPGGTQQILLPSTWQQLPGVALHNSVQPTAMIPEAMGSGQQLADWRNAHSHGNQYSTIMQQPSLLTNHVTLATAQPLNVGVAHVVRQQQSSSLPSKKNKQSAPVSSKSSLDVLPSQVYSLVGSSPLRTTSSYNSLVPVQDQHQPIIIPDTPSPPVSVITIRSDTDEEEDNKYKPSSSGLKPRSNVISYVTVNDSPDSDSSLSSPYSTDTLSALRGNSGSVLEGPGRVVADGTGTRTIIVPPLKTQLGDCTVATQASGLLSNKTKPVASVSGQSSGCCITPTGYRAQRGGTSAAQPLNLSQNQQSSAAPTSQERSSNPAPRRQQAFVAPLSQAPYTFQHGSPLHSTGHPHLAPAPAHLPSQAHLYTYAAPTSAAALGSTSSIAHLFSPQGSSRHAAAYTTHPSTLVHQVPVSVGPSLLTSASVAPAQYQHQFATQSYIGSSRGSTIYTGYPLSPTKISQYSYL
T21 sequence (O75116 whole entry): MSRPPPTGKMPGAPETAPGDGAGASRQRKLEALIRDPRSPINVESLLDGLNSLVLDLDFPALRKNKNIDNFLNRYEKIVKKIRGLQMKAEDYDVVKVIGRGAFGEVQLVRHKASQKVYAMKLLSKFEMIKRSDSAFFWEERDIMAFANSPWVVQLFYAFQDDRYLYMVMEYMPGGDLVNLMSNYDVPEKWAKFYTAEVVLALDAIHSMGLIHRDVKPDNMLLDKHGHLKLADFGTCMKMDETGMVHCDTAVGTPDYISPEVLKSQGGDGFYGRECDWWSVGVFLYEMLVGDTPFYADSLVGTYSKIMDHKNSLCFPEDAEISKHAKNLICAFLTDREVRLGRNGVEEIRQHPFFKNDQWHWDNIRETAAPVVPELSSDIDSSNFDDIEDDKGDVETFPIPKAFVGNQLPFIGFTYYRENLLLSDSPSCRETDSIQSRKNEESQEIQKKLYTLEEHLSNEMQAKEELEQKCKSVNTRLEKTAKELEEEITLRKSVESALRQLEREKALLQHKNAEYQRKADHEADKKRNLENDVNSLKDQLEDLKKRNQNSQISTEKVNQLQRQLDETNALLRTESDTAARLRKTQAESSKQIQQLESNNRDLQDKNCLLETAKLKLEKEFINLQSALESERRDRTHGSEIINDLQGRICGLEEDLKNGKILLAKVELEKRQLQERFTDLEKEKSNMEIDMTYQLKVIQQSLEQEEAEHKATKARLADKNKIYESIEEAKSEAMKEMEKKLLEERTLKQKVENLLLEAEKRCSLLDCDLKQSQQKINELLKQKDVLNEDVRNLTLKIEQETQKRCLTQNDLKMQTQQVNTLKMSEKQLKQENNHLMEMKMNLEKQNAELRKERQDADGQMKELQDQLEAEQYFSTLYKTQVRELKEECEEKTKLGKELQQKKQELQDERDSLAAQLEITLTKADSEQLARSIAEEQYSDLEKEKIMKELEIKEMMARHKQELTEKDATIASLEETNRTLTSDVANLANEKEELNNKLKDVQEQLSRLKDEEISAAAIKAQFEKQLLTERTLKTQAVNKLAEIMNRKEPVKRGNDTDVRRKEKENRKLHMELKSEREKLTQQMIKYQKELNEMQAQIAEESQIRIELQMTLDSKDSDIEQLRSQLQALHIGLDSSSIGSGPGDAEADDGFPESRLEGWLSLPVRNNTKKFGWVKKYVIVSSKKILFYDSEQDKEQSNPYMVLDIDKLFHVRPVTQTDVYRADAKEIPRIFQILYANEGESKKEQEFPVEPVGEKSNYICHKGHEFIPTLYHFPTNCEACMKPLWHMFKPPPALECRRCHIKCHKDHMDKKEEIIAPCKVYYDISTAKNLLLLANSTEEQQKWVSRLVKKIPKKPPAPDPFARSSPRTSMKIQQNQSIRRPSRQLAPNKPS
T22 sequence (O43353 whole entry): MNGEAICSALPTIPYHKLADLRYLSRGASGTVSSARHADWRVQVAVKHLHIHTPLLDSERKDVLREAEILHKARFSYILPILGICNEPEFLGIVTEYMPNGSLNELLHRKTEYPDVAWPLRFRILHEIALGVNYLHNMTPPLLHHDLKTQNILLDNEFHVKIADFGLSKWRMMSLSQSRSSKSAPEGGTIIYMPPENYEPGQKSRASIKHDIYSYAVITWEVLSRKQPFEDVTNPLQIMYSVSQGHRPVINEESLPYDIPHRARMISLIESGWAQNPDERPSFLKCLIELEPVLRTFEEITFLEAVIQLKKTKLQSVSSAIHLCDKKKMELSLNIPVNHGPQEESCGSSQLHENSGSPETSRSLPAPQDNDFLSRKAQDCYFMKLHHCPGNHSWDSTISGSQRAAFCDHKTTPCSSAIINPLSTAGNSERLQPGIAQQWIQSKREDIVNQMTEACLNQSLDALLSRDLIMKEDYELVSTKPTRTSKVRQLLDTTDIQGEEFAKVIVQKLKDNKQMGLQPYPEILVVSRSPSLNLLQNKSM
T16 sequence (Q9P286 whole entry): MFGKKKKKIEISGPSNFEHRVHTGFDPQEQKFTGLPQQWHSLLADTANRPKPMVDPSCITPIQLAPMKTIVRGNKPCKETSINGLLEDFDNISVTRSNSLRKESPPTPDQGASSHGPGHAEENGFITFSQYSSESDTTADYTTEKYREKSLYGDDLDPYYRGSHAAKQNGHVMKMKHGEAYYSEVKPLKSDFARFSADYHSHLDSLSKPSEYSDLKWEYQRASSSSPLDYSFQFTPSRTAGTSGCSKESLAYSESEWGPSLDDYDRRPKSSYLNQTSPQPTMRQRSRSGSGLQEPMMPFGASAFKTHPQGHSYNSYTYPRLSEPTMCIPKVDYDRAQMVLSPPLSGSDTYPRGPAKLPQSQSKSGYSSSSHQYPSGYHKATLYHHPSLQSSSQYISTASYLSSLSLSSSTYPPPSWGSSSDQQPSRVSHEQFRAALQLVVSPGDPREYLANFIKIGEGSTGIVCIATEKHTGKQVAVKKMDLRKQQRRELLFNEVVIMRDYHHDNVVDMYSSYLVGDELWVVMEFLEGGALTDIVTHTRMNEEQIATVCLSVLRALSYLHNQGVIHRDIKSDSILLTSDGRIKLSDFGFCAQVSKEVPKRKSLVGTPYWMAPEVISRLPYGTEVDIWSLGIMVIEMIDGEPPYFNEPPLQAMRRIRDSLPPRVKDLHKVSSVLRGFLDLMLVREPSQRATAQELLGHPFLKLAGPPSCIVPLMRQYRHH
T33 sequence (P11362 22-822): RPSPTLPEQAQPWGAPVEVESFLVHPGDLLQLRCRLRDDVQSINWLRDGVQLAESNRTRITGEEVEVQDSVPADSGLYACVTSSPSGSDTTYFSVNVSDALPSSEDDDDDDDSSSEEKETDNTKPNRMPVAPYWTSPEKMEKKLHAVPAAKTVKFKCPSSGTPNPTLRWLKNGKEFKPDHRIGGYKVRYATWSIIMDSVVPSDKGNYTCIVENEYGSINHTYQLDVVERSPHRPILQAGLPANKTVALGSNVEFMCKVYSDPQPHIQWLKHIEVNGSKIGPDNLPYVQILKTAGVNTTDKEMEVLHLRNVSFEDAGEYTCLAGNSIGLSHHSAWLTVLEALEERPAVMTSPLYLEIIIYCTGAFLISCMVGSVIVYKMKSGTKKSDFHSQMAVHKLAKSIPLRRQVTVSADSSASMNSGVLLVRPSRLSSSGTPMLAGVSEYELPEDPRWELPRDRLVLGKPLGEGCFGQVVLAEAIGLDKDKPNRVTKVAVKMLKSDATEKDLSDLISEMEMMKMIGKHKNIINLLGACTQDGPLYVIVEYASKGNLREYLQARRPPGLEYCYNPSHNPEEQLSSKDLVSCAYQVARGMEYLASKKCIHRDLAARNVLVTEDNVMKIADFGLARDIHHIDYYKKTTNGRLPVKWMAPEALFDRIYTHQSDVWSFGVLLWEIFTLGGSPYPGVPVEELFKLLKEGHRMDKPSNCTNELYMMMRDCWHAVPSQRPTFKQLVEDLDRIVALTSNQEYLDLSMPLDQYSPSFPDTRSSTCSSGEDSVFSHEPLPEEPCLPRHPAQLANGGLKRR
T19 sequence (Q9BXA7 whole entry): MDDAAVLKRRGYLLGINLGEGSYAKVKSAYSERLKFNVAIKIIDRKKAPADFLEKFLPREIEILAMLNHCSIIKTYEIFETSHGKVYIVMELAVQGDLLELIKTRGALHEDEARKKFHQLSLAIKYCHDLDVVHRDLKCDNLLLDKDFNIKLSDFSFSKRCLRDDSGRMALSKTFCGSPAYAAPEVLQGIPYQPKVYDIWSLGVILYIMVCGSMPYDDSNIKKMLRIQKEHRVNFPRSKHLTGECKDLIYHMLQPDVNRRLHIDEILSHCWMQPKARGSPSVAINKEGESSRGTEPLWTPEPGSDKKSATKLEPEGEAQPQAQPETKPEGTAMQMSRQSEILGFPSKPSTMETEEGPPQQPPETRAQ

SMILES: COc1ccc(-c2cc3nccn3c(Nc3ncccc3C(N)=O)n2)cc1OC.Cl.Cl [BAY61-3606, 2-[7-(3,4-dimethoxyphenyl)-imidazo [1,2-c]pyrimidin-5-ylamino] nicotinamide dihydrochloride, reference compound]
- % binding compared to no inhibitor control [1]: 85%
- % binding compared to no inhibitor control [2]: 53%
- % binding compared to no inhibitor control [3]: 68%
- % binding compared to no inhibitor control [4]: 100%
- % binding compared to no inhibitor control [5]: 99%
- % binding compared to no inhibitor control [6]: 100%
- % binding compared to no inhibitor control [7]: 100%
- % binding compared to no inhibitor control [8]: 84%
- % binding compared to no inhibitor control [9]: 27%
- % binding compared to no inhibitor control [10]: 96%
- % binding compared to no inhibitor control [11]: 99%
- % binding compared to no inhibitor control [12]: 72%
- % binding compared to no inhibitor control [13]: 47%
- % binding compared to no inhibitor control [14]: 9.2%
- % binding compared to no inhibitor control [15]: 94%
- % binding compared to no inhibitor control [16]: 72%
- % binding compared to no inhibitor control [17]: 96%
- % binding compared to no inhibitor control [18]: 8.4%
- % binding compared to no inhibitor control [19]: 96%
- % binding compared to no inhibitor control [20]: 9.9%
- % binding compared to no inhibitor control [21]: 13%
- % inhibition ATP binding ([21]; ROCK2, KINOMEscan, 1 μM): 87%
- % binding compared to no inhibitor control [22]: 70%
- % binding compared to no inhibitor control [23]: 100%
- % binding compared to no inhibitor control [24]: 83%
- % binding compared to no inhibitor control [25]: 92%
- % binding compared to no inhibitor control [26]: 96%
- % binding compared to no inhibitor control [27]: 96%
- % binding compared to no inhibitor control [28]: 80%
- % binding compared to no inhibitor control [29]: 80%
- % binding compared to no inhibitor control [30]: 63%
- % binding compared to no inhibitor control [31]: 8.8%
- % inhibition ATP binding ([31]; HIPK1, KINOMEscan, 1 μM): 91.2%
- % binding compared to no inhibitor control [32]: 100%
- % binding compared to no inhibitor control [33]: 93%
- % binding compared to no inhibitor control [34]: 88%
- % binding compared to no inhibitor control [35]: 33%
- % binding compared to no inhibitor control [36]: 87%
- % binding compared to no inhibitor control [37]: 76%
- % binding compared to no inhibitor control [38]: 2.1%
- % binding compared to no inhibitor control [39]: 77%
- % binding compared to no inhibitor control [40]: 81%

SMILES: COc1ccccc1Nc1nc(-c2ccc(OC)c(OC)c2)cc2nccn12 [BAY derivative 6]
- % binding compared to no inhibitor control [1]: 90%
- % binding compared to no inhibitor control [2]: 90%
- % binding compared to no inhibitor control [3]: 93%
- % binding compared to no inhibitor control [4]: 100%
- % binding compared to no inhibitor control [5]: 99%
- % binding compared to no inhibitor control [6]: 100%
- % binding compared to no inhibitor control [7]: 88%
- % binding compared to no inhibitor control [8]: 100%
- % binding compared to no inhibitor control [9]: 100%
- % binding compared to no inhibitor control [10]: 100%
- % binding compared to no inhibitor control [11]: 25%
- % binding compared to no inhibitor control [12]: 100%
- % binding compared to no inhibitor control [13]: 67%
- % binding compared to no inhibitor control [14]: 37%
- % binding compared to no inhibitor control [15]: 100%
- % binding compared to no inhibitor control [16]: 98%
- % binding compared to no inhibitor control [17]: 53%
- % binding compared to no inhibitor control [18]: 60%
- % binding compared to no inhibitor control [19]: 100%
- % binding compared to no inhibitor control [20]: 69%
- % binding compared to no inhibitor control [21]: 96%
- % binding compared to no inhibitor control [22]: 100%
- % binding compared to no inhibitor control [23]: 64%
- % binding compared to no inhibitor control [24]: 53%
- % binding compared to no inhibitor control [25]: 100%
- % binding compared to no inhibitor control [26]: 92%
- % binding compared to no inhibitor control [27]: 57%
- % binding compared to no inhibitor control [28]: 100%
- % binding compared to no inhibitor control [29]: 91%
- % binding compared to no inhibitor control [30]: 96%
- % binding compared to no inhibitor control [31]: 85%
- % binding compared to no inhibitor control [32]: 100%
- % binding compared to no inhibitor control [33]: 100%
- % binding compared to no inhibitor control [34]: 95%
- % binding compared to no inhibitor control [35]: 96%
- % binding compared to no inhibitor control [36]: 91%
- % binding compared to no inhibitor control [37]: 95%
- % binding compared to no inhibitor control [38]: 82%
- % binding compared to no inhibitor control [39]: 88%
- % binding compared to no inhibitor control [40]: 100%
